Values of other authors as cited in PubChem BioAssay AID1259409 (Chemical Carcinogenesis Research Information System (CCRIS), 2018).
Where “and” joins values, the source holds several entries; their conditions need not be identical. Equal entries are not always repeated.

Test system: rodent chemically induced tumor inhibition, incidence and multiplicity
Test: CCRIS tumor inhibitor studies
Conditions: for tumour outcome (control, treated, inhibition, significance): Route [Inhibitor]: ORAL

SMILES | outcome (Carcinogen: 4-(Methylnitrosamino)-1-(3-pyridyl)-1-butanone [64091-91-4] (NNK), Dose [Inhibitor]: 0, 7.5, 15, 30 mg/kg in diet for 17 wks, study duration 17 wks, Dose [Inhibitor]: 0, 7.5, 15, 30 mg/kg in diet for 17 wks, study duration 17 wks, Route [Inhibitor]: Oral, Species: Mouse, Strain/Sex: A/J/Male, Target Tissue: Type of Lesion: Lung, Dose [Carcinogen]: 100 mg NNK/kg bw once at 8 wks of age, study duration 17 wks) | tumour outcome (control, treated, inhibition, significance) (Carcinogen: N-METHYL-N-NITROSOUREA, 684-93-5, Dose [Inhibitor]: 0, 3.3 UG/KG OF DIET FOR 147 D (STUDY DURATION: 150 D), Species: RAT, Strain/Sex: SPRAGUE-DAWLEY/FEMALE, Target Tissue: Type of Lesion: MAMMARY GLAND: ADENOCARCINOMA, Dose [Carcinogen]: 50 MG/KG BW ONCE 3 D BEFORE INITIAL INHIBITOR DOSE, Promoter: NONE USED) | tumour outcome (control, treated, inhibition, significance) (Carcinogen: N-METHYL-N-NITROSOUREA, 684-93-5, Dose [Inhibitor]: 0, 10 UG/KG OF DIET FOR 147 D (STUDY DURATION: 150 D), Species: RAT, Strain/Sex: SPRAGUE-DAWLEY/FEMALE, Target Tissue: Type of Lesion: MAMMARY GLAND: ADENOCARCINOMA, Dose [Carcinogen]: 50 MG/KG BW ONCE 3 D BEFORE INITIAL INHIBITOR DOSE, Promoter: NONE USED) | tumour outcome (control, treated, inhibition, significance) (Carcinogen: N-METHYL-N-NITROSOUREA, 684-93-5, Dose [Inhibitor]: 0, 50 MG/KG OF DIET BEGINNING 1 WK PRIOR TO CARCINOGEN DOSE (STUDY DURATION: 14 MO), Species: RAT, Strain/Sex: WISTAR-UNILEVER/MALE, Target Tissue: Type of Lesion: PROSTATE: ADENOCARCINOMA, Dose [Carcinogen]: 30 MG/KG BW ONCE ADMINISTERED TO RATS PRETREATED WITH 50 MG OF CYPROTERONE ACETATE BY GAVAGE FOR 21 CONSECUTIVE DAYS THE, Promoter: TESTOSTERONE, 58-22-0) | tumour outcome (control, treated, inhibition, significance) (Carcinogen: N-METHYL-N-NITROSOUREA, 684-93-5, Dose [Inhibitor]: 0, 60 MG/KG OF DIET FOR 147 D (STUDY DURATION: 150 D), Species: RAT, Strain/Sex: SPRAGUE-DAWLEY/FEMALE, Target Tissue: Type of Lesion: MAMMARY GLAND: ADENOCARCINOMA, Dose [Carcinogen]: 50 MG/KG BW ONCE 3 D BEFORE INITIAL INHIBITOR DOSE, Promoter: NONE USED) | tumour outcome (control, treated, inhibition, significance) (Carcinogen: N-METHYL-N-NITROSOUREA, 684-93-5, Dose [Inhibitor]: 0, 60 MG/KG OF DIET FOR DURATION OF STUDY BEGINNING 1 WK POST CARCINOGEN DOSE (STUDY DURATION: 5 MO), Species: RAT, Strain/Sex: SPRAGUE-DAWLEY/FEMALE, Target Tissue: Type of Lesion: MAMMARY GLAND: TUMOR, Dose [Carcinogen]: 50 MG/KG BW ONCE, Promoter: NONE USED) | tumour outcome (control, treated, inhibition, significance) (Carcinogen: N-METHYL-N-NITROSOUREA, 684-93-5, Dose [Inhibitor]: 0, 100 MG/KG OF DIET BEGINNING 1 WK PRIOR TO CARCINOGEN DOSE (STUDY DURATION: 14 MO), Species: RAT, Strain/Sex: WISTAR-UNILEVER/MALE, Target Tissue: Type of Lesion: PROSTATE: ADENOCARCINOMA, Dose [Carcinogen]: 30 MG/KG BW ONCE ADMINISTERED TO RATS PRETREATED WITH 50 MG OF CYPROTERONE ACETATE BY GAVAGE FOR 21 CONSECUTIVE DAYS THE, Promoter: TESTOSTERONE, 58-22-0) | tumour outcome (control, treated, inhibition, significance) (Carcinogen: N-METHYL-NITROSOUREA [684-93-5], Dose [Inhibitor]: 60 MG/KG DIET BEGINNING 3 D POST-CARCINOGEN DOSE (STUDY DURATION: 150 D), Species: RAT, Strain/Sex: SPRAGUE-DAWLEY/FEMALE, Target Tissue: Type of Lesion: MAMMARY GLAND: ADENOCARCINOMA, Dose [Carcinogen]: 50 MG/KG BW ONCE AT 50 D OF AGE) | tumour outcome (control, treated, inhibition, significance) (Carcinogen: N-NITROSO-N-METHYLUREA, 684-93-5, Dose [Inhibitor]: 0, 60 MG/KG OF DIET FOR 3 MO BEGINNING 1 WK POST CARCINOGEN DOSE (STUDY DURATION: 100 D), Species: RAT, Strain/Sex: SPRAGUE-DAWLEY/FEMALE, Target Tissue: Type of Lesion: MAMMARY GLAND: TUMOR, Dose [Carcinogen]: 50 MG/KG BW ONCE, Promoter: NONE USED) | tumour outcome (control, treated, inhibition, significance) (Carcinogen: N-NITROSO-N-METHYLUREA, 684-93-5, Dose [Inhibitor]: 0, 60 MG/KG OF DIET FOR 4.5 MO BEGINNING 1 WK POST CARCINOGEN DOSE (STUDY DURATION: 100 D), Species: RAT, Strain/Sex: SPRAGUE-DAWLEY/FEMALE, Target Tissue: Type of Lesion: MAMMARY GLAND: TUMOR, Dose [Carcinogen]: 50 MG/KG BW ONCE, Promoter: NONE USED) | tumour outcome (control, treated, inhibition, significance) (Carcinogen: N-NITROSO-N-METHYLUREA, 684-93-5, Dose [Inhibitor]: 0, 120 MG/KG OF DIET FOR 3 MO BEGINNING 1 WK POST CARCINOGEN DOSE (STUDY DURATION: 100 D), Species: RAT, Strain/Sex: SPRAGUE-DAWLEY/FEMALE, Target Tissue: Type of Lesion: MAMMARY GLAND: TUMOR, Dose [Carcinogen]: 50 MG/KG BW ONCE, Promoter: NONE USED) | tumour outcome (control, treated, inhibition, significance) (Carcinogen: N-NITROSO-N-METHYLUREA, 684-93-5, Dose [Inhibitor]: 0, 120 MG/KG OF DIET FOR 4.5 MO BEGINNING 1 WK POST CARCINOGEN DOSE (STUDY DURATION: 100 D), Species: RAT, Strain/Sex: SPRAGUE-DAWLEY/FEMALE, Target Tissue: Type of Lesion: MAMMARY GLAND: TUMOR, Dose [Carcinogen]: 50 MG/KG BW ONCE, Promoter: NONE USED) | tumour outcome (control, treated, inhibition, significance) (Carcinogen: 7,12-DIMETHYLBENZ[A]ANTHRACENE, 57-97-6, Dose [Inhibitor]: 1% IN 20% PROTEIN DIET AND 0.5% IN DRINKING WATER (STUDY DURATION: 150 D), Species: RAT, Strain/Sex: STRAIN-CB/FEMALE, Target Tissue: Type of Lesion: MAMMARY GLAND: TUMOR, Dose [Carcinogen]: 15 MG IN 1 ML ARACHIS OIL TWICE 14 D APART, Promoter: NONE USED) | tumour outcome (control, treated, inhibition, significance) (Carcinogen: 7,12-DIMETHYLBENZ[A]ANTHRACENE, 57-97-6, Dose [Inhibitor]: 1.5% IN 20% PROTEIN DIET (STUDY DURATION: 100 D), Species: RAT, Strain/Sex: STRAIN-CB/FEMALE, Target Tissue: Type of Lesion: MAMMARY GLAND: TUMOR, Dose [Carcinogen]: 15 MG IN 1 ML ARACHIS OIL THREE DOSES GIVEN 1/2 WK, Promoter: NONE USED) | tumour outcome (control, treated, inhibition, significance) (Carcinogen: NONE USED, Dose [Inhibitor]: 0.4% IN DRINKING WATER, STARTING AT 7-9 WK OF AGE AND CONTINUING FOR DURATION OF STUDY (STUDY DURATION: 10-12 MO), Species: MOUSE, Strain/Sex: STRAIN-A/MALE, FEMALE, Target Tissue: Type of Lesion: LUNG: ADENOMA, Promoter: NONE USED)
CC1=C(/C=C/C(C)=C\C=C\C(C)=C\C(=O)O)C(C)(C)CCC1 | 14/14 (100%); 13/14 (93%); 14/14 (100%); 11/13 (85%) | 25/25 (100%), 25/25 (100%), 0%, not significant | 25/25 (100%), 25/25 (100%), 0%, not significant | 22/34 (65%), 8/40 (20%), 70%, p<0.001 | 25/25 (100%), 24/25 (96%), 4%, not significant | 23/24 (96%), 9/12 (75%), 22%, p=0.1 and 29/30 (97%), 24/30 (80%), 18%, p=0.1 | 22/34 (65%), 7/38 (18%), 72%, p<0.001 | 25/25 (100%); 24/25 (96%), 4%, not significant | 100%, 58%, 42%, p<0.002 | 96%, 75%, 22%, not significant | 100%, 25%, 75%, p<0.001 | 96%, 42%, 56%, p<0.001 | – | – | –
Cc1c[nH]c(=O)[nH]c1=O | – | – | – | – | – | – | – | – | – | – | – | – | 11/11 (100%), 6/11 (55%), 45%, not calculated | 18/18 (100%), 16/20 (80%), 20%, not calculated | 48%, 17%, 65%, p 0.02
